Data from the supplement of paper PMC10307832.

Assays:
Experiment in all cases: relative viability (nuclei count vs DMSO), 5 days (fraction); higher = more cells survive
R406 + Bortezomib = compound: COc1cc(Nc2ncc(F)c(Nc3ccc4c(n3)NC(=O)C(C)(C)O4)n2)cc(OC)c1OC [R406] + CC(C)C[C@H](NC(=O)[C@H](Cc1ccccc1)NC(=O)c1cnccn1)B(O)O [Bortezomib] (partner 0.002 µM)
Summary of the method: (§1)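 Relative viability divides the nuclei count in treated wells by that in vehicle wells. Lung cancer cell lines were seeded in 1536-well plates, dosed by pin tool the next day, and fixed and stained after 5 days in one step with final 0.05% Triton X-100, 1% formaldehyde and 1 ug/ml Hoechst. Dosing was a single drug or a fixed anchor-drug dose plus five library-drug doses (not always all listed) in √10 steps, and values are medians of duplicate plates imaged at 4×.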

R406 + Lapatinib = compound: COc1cc(Nc2ncc(F)c(Nc3ccc4c(n3)NC(=O)C(C)(C)O4)n2)cc(OC)c1OC [R406] + CS(=O)(=O)CCNCc1ccc(-c2ccc3ncnc(Nc4ccc(OCc5cccc(F)c5)c(Cl)c4)c3c2)o1 [Lapatinib] (partner 2 µM)
Summary of the method: as §1

R406 + Tozasertib = compound: COc1cc(Nc2ncc(F)c(Nc3ccc4c(n3)NC(=O)C(C)(C)O4)n2)cc(OC)c1OC [R406] + Cc1cc(Nc2cc(N3CCN(C)CC3)nc(Sc3ccc(NC(=O)C4CC4)cc3)n2)n[nH]1 [Tozasertib] (partner 0.1 µM)
Summary of the method: as §1

R406 + Olaparib = compound: COc1cc(Nc2ncc(F)c(Nc3ccc4c(n3)NC(=O)C(C)(C)O4)n2)cc(OC)c1OC [R406] + O=C(c1cc(Cc2n[nH]c(=O)c3ccccc23)ccc1F)N1CCN(C(=O)C2CC2)CC1 [Olaparib] (partner 8 µM)
Summary of the method: as §1

Row | Cell Line | relative viability (R406 + Bortezomib; first compound 0.08 µM) | relative viability (R406 + Bortezomib; first compound 0.253 µM) | relative viability (R406 + Bortezomib; first compound 0.8 µM) | relative viability (R406 + Bortezomib; first compound 8 µM) | relative viability (R406 + Lapatinib; first compound 0.08 µM) | relative viability (R406 + Lapatinib; first compound 0.253 µM) | relative viability (R406 + Lapatinib; first compound 0.8 µM) | relative viability (R406 + Lapatinib; first compound 8 µM) | relative viability (R406 + Tozasertib; first compound 0.08 µM) | relative viability (R406 + Tozasertib; first compound 0.253 µM) | relative viability (R406 + Tozasertib; first compound 0.8 µM) | relative viability (R406 + Tozasertib; first compound 2.53 µM) | relative viability (R406 + Tozasertib; first compound 8 µM) | relative viability (R406 + Olaparib; first compound 0.08 µM) | relative viability (R406 + Olaparib; first compound 0.253 µM) | relative viability (R406 + Olaparib; first compound 0.8 µM) | relative viability (R406 + Olaparib; first compound 2.53 µM) | relative viability (R406 + Olaparib; first compound 8 µM) | relative viability (R406 + Bortezomib; first compound 2.53 µM) | relative viability (R406 + Lapatinib; first compound 2.53 µM)
1 | LU99A | 1.07 | 0.968 | 1.26 | 0.512 | 0.946 | 0.849 | 1.08 | 0.482 | 0.274 | 0.312 | 0.246 | 0.313 | 0.265 | 0.244 | 0.258 | 0.267 | 0.218 | 0.234 |  | 
2 | ABC-1 | 0.399 | 0.321 | 0.317 | 0.265 | 0.85 | 1.07 | 1.09 | 0.705 | 0.167 | 0.16 | 0.162 | 0.158 | 0.14 | 0.77 | 0.805 | 0.923 | 0.501 | 0.576 | 0.251 | 0.875
3 | NCI-H2347 | 1.07 | 1.25 | 1.19 | 0.642 | 1.01 | 0.968 | 0.958 | 0.801 | 0.537 | 0.671 | 0.682 | 0.458 | 0.347 | 0.556 | 0.583 | 0.604 | 0.531 | 0.47 | 0.815 | 0.905
4 | NCI-H1993 | 1.04 | 1.12 | 1.11 | 0.6 | 0.882 | 0.964 | 0.829 | 0.646 | 0.597 | 0.536 | 0.605 | 0.493 | 0.432 | 1.14 | 1.02 | 1.07 | 0.992 | 0.918 | 0.544 | 0.43
5 | NCI-H322M | 1.19 | 0.994 | 1.19 | 0.803 | 0.543 | 0.51 | 0.647 | 0.343 | 0.496 | 0.465 | 0.489 | 0.343 | 0.283 | 0.654 | 0.695 | 0.826 | 0.641 | 0.488 | 0.534 | 0.335
6 | PC-14 | 0.874 | 0.957 | 0.909 | 0.704 | 0.302 | 0.442 | 0.382 | 0.294 | 0.57 | 0.681 | 0.623 | 0.546 | 0.603 | 0.271 | 0.257 | 0.225 | 0.291 | 0.0748 | 0.604 | 0.3
7 | HARA | 1.07 | 1.21 | 1.15 | 0.389 | 0.743 | 0.672 | 0.775 | 0.157 | 0.115 | 0.127 | 0.13 | 0.155 | 0.123 | 0.826 | 0.496 | 0.705 | 0.779 | 0.17 | 0.991 | 0.55
8 | NCI-H2087 | 0.815 | 1.02 | 0.847 | 0.751 | 0.826 | 1.26 | 1.36 | 0.966 | 0.293 | 0.238 | 0.298 |  | 0.253 | 0.558 | 0.581 | 0.739 | 0.488 | 0.32 | 0.428 | 0.254
9 | NCI-H1437 | 0.392 | 0.768 | 0.675 | 0.226 | 0.689 | 1.01 | 1.07 | 0.328 | 0.403 | 0.433 | 0.409 | 0.417 | 0.416 | 0.611 | 0.622 | 0.647 | 0.546 | 0.431 | 0.259 | 0.265
10 | NCI-H661 | 0.769 | 0.877 | 0.945 | 0.469 | 0.435 | 0.48 | 0.413 | 0.277 | 0.337 | 0.322 | 0.32 | 0.348 | 0.324 | 0.731 | 0.783 | 0.673 | 0.697 | 0.591 | 0.721 | 0.362
11 | COR-L23 | 0.942 | 1.14 | 1.06 | 0.523 | 1.02 | 1.09 | 1.49 | 0.47 | 0.173 | 0.218 | 0.164 | 0.15 | 0.113 | 0.385 | 0.354 | 0.334 | 0.246 | 0.209 | 0.907 | 1.05
12 | COR-L 105 | 0.68 | 0.84 | 1.06 | 0.246 | 0.359 | 0.391 | 0.364 | 0.292 | 0.344 | 0.325 | 0.439 | 0.237 | 0.399 | 0.592 | 0.704 | 0.554 | 0.59 | 0.602 | 0.315 | 0.276
13 | 201T | 1.11 | 1.09 | 1.11 | 0.993 | 0.868 | 1.06 | 1.02 | 0.905 | 1.02 | 1 | 0.986 | 0.939 | 0.523 | 0.853 | 0.867 | 0.873 | 0.824 | 0.515 | 1.04 | 0.95
14 | HCC-44 | 0.927 | 1.07 | 1 | 0.603 | 0.899 | 1.08 | 1.12 | 0.619 | 0.909 | 0.532 | 0.963 | 0.979 | 0.393 | 0.95 | 1 | 0.954 | 0.989 | 1.06 | 0.312 | 0.624
15 | NCI-H647 | 0.89 | 1.02 | 1.59 | 0.188 | 0.84 | 1.17 | 1.78 | 0.157 | 0.261 | 0.327 | 0.26 | 0.21 | 0.173 | 0.423 | 0.633 | 0.643 | 0.231 | 0.0598 | 0.0846 | 0.0824
16 | H3255 | 0.852 | 0.912 | 0.686 | 0.457 | 0.257 | 0.264 | 0.249 | 0.233 | 0.673 |  | 0.782 | 0.604 | 0.603 | 0.556 | 0.607 | 0.545 | 0.512 | 0.475 | 0.865 | 0.235
17 | LCLC-103H | 0.972 | 1.29 | 1.08 | 0.9 |  |  |  |  | 0.524 | 0.495 | 0.569 | 0.503 | 0.376 | 0.77 | 0.888 | 0.81 | 0.762 | 0.302 | 0.781 | 
